Laboratory results taken from US6992215B2, “Thiol-based NAALADase inhibitors” (Guildford Pharmaceuticals Inc., priority 2001, dated 2006).
Several values for one entry are separate records, joined by “and”; a condition that tells them apart may be missing. Equal entries are not always repeated. Peptide text beside a SMILES is read from it.

What was measured:
[1] = tested on: rats with unilateral elevation of intraocular pressure; experiment: Experimental rat glaucoma (IOP elevation, optic nerve fiber counting); format: in vivo; settings: for FIBER NUMBER / PERCENT DIFFERENCE (fiber number between glaucoma and normal eye): 10 mg/kg i.p. daily; for mean percent fiber loss versus saline-treated control groups: at 8 weeks, p=0.05 for Compound A and p=0.02 for Compound B
Description: (§1) All experiments complied with the Association for Research in Vision and Ophthalmology Statement for the Use of Animals in Ophthalmic and Vision Research. 82 male Brown Norway rats (Rattus norvegicus), each weighing approximately 250 gm, were treated using procedures approved by the Animal Care Committee of the Johns Hopkins University School of Medicine. The rats were housed with a 12 hour light/12 hour dark cycle and fed ad libitum.
EXPERIMENTAL GLAUCOMA: Unilateral elevation of intraocular pressure (“IOP”) was produced in 56 rats by microinjection of hypertonic saline into episcleral veins, following procedures described in Morrison, J. et al., IOVS (March 1998) 39:526–531. Beginning on the day of IOP elevation, the rats were treated daily with intraperitoneal injections of either a vehicle (23 rats with 50 mM HEPES-buffered saline) or a NAALADase inhibitor (11 rats with 10 mg/kg of Compound A and 22 rats with 10 mg/kg of Compound B). 11 saline treated rats, 11 Compound A treated rats and 11 Compound B treated rats were sacrificed at 8 weeks, and the remaining rats at 12 weeks, after initial IOP elevation.
(§2) OPTIC NERVE COUNTING: The rats were sacrificed by exsanguination under deep pentobarbital anesthesia. They were perfused through the heart with 2% paraformaldehyde/2% glutaraldehyde in 0.1 M phosphate buffer, pH 7.2, and the eyes with attached optic nerves were removed. A cross-section of the optic nerve from both experimental (glaucoma or transection) and control eyes was removed 1.5 mm posterior to the globe, 1 mm in thickness, and post-fixed in 2% osmium tetroxide in buffer. These were processed into epoxy resin, sectioned at 1 micron and stained with toluidine blue.
(§3) The area of the optic nerve cross-section was measured by outlining its outer border at 10× magnification on an image analysis system (Universal Imaging Corp., Westchester, Pa.) with Synsys digital camera and Metamorph software. Three area measurements were taken and the mean value was determined. To measure the density and fiber diameter distributions, images were captured with a 100× phase contrast objective from 10 different areas of each nerve. These were edited to eliminate non-neural objects and the size of each axon internal to the myelin sheath (its minimum diameter) and the density of axons/square mm were calculated for each image and nerve. The mean density was multiplied by total nerve area to yield fiber number for each nerve. The total fiber number in glaucoma or transection nerves was compared to the normal, fellow eye of each rat to yield a percent loss value. The number of axons counted among the 10 images was an approximately 20% sample of the 80–90,000 axons in normal rat nerves. The person measuring axon number was masked to the protocol conducted on the nerves.

[2] = tested on: STZ-induced diabetic rats; experiment: Neuropathic pain in STZ model (Hargreaves thermal nociception); format: in vivo, Sprague-Dawley rats; settings: 10 mg/kg i.p. daily, treatment started 45 days post-STZ
Description: Male Sprague-Dawley rats (200–225 g) were rendered diabetic by intravenous administration of streptozotocin (“STZ”, 70 mg/kg in phosphate buffered saline). Diabetic animals were divided into five groups: one group receiving Compound A (10 mg/kg or 1 mg/kg), Compound D (10 mg/kg or 1 mg/kg) or vehicle. Another group of animals (non-STZ treated) served as non-diabetic controls. Drug/vehicle treatment was started in diabetic animals 45 days post-STZ administration. STZ-induced diabetic rats were tested for sensitivity to a heat source as soon as blood glucose levels rose to 320 mg/dl or above (30 days post STZ). The rats were then acclimated to a Hargreaves apparatus and thermal nociception was monitored using an infrared heat source directed into the dorsal surface of the hindpaw, and the time taken for the animal to remove its paw noted to the nearest 0.1 seconds (see Hargreaves et al., supra, for detailed experimental method). The intensity of the beam source was adjusted such that the mean latency for control animals (non-STZ treated) was approximately 10 seconds. Each animal was tested 8 times and the mean difference score (between mean non-diabetic control latency and mean diabetic latency) are graphically presented in FIGS. 7A and 7B.

transgenic G1H mice = experiment: Effect of NAALADase inhibitors on onset of ALS (FALS transgenic mice); format: in vivo
Description: The effect of NAALADase inhibitors on the onset of ALS was tested using the transgenic mice model of familial amyotrophic lateral sclerosis (FALS), which is detailed in Gurney, M., Annals of Neurology (1996) 39:147–157, and otherwise well known in the art. One month old transgenic G1H mice were treated with daily intraperitoneal injections of a vehicle (50 mM HEPES-buffered saline) or a NAALADase inhibitor (50 mg/kg Compound A). Clinical symptoms of the mice were monitored daily. The onset of clinical disease was scored by examining each mouse for its shaking of limbs when suspended in the air by its tail, cross spread of spinal reflexes, hindlimb paralysis, body weight and wheel running activity.

STZ-diabetic rats = experiment: Diabetic neuropathy in STZ model (motor and sensory nerve conduction velocity); format: in vivo
Description: Motor and sensory nerve conduction velocity was also measured in STZ-diabetic animals after 4, 8 and 12 weeks of treatment (see De Koning et al., supra, for a description of the experimental method). Briefly, stimulating needle electrodes were inserted close to the sciatic and tibial nerves with recording electrodes being placed subcutaneously over the distal foot muscles, in anesthetized rats.

BB/W diabetic rats = experiment: Progression of neuropathic pain and nerve conduction deficits in BB/W model; format: in vivo
From the text: Male BB/W rats (BRI, Mass) spontaneously develop a cell mediated autoimmune destruction of pancreatic B cells, resulting in onset of insulin-dependent (Type I) diabetes (Guberski 1994). […] This renders them valuable for experimental trials of new compounds for future treatments of this major disorder. In the present study, Compound D and Compound A were examined for their ability to alter the progression of diabetic neuropathy. […] Another group of non-diabetic rats also receiving vehicle were tested. All animals were continuously monitored for body weight, urine volume, blood sugar and glycated haemoglobin. In the first month of the study, all animals were tested for thermal nociception in a Hargreaves apparatus, weekly. After the first month this was done biweekly and then monthly. The testing consists of directing an infrared heat source onto the dorsal surface of the rat hindpaw and noting the time taken for the animal to remove its paw (see Hargreaves et al., supra, for a description of the experimental method). Each animal was tested 8 times and the mean withdrawal latency noted.
Nerve conduction velocity was also measured every two weeks through the first eight weeks of treatment and every month thereafter through to the six months of treatment (see De Koning et al., Peptides, Vol. 8, No. 3, pp. 415–22 (1987) for a description of the experimental method). […] This was apparent starting at 8 weeks of treatment and persisted to a similar degree through to the six month termination point of the study.

[3] = tested on: rats with unilaterally transected optic nerve; experiment: Optic nerve transection (optic nerve fiber counting); format: in vivo, Rattus norvegicus; settings: for remaining axons relative to the saline-treated rats: 2 weeks after transection; for FIBER NUMBER / PERCENT DIFFERENCE (fiber number between transected eye and normal eye): 10 mg/kg i.p. daily
Description: as §1
OPTIC NERVE TRANSECTION: The optic nerve was transected unilaterally in 26 rats under intraperitoneal pentobarbital anesthesia. The conjunctiva was opened with scissors and the optic nerve exposed by traction on extraocular muscles. The transection was performed with microscissors 5 mm posterior to the globe, with specific attention to avoidance of injury to major ocular blood vessels. Immediately after transection, the retina was examined ophthalmoscopically to assure that the retinal arterial blood supply was not disrupted. The conjunctiva was closed with absorbable suture and the eye dressed with antibiotic ointment. Beginning on the day of transection, the rats were treated daily with intraperitoneal injections of either a vehicle (9 rats with 50 mM HEPES-buffered saline) or a NAALADase inhibitor (8 rats with 10 mg/kg of Compound A and 9 rats with 10 mg/kg of Compound B). 5 saline treated rats, 3 Compound A treated rats and 4 Compound B treated rats were sacrificed at 2 weeks, and the remaining rats at 4 weeks, after transection.
as §2, §3

NAALADase = target: T1, NAALADase (Homo sapiens, UniProt Q04609); settings: NAAG as substrate; cited from earlier work
T1 construct: 100 μL tissue; from tissue; host or cells: unspecified tissue
T1 sequence (Q04609 whole entry): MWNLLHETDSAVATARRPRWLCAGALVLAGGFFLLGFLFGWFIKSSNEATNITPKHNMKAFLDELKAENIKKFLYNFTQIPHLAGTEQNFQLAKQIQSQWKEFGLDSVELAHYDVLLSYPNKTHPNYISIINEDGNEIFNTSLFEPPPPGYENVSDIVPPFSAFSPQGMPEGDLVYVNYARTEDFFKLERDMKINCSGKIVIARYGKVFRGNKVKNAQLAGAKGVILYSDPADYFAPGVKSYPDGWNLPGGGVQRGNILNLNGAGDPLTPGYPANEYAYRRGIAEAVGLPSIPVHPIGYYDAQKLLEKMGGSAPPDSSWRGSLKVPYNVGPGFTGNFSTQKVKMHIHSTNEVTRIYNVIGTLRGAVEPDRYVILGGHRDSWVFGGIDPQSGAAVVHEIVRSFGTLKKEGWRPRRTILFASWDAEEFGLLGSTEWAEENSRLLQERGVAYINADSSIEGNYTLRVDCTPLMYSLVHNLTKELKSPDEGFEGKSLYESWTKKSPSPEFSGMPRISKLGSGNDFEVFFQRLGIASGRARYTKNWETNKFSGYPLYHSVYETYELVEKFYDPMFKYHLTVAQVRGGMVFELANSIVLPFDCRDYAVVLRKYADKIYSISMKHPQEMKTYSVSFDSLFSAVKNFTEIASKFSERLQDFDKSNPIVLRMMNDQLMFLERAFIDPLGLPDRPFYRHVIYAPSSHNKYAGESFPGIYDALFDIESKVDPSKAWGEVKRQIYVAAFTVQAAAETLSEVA

[4] = tested on: transgenic HD mice of the N171–82Q strain; experiment: Huntington's disease transgenic mouse model, behavioral testing (rotarod, locomotion); format: in vivo; settings: FIG. 42
Description: Transgenic HD mice of the […]-[…] strain and non-transgenic littermates were treated with NAALADase inhibitor Compound B (30 mg/kg) or a vehicle from 10 weeks of age. The mice were placed on a rotating rod (“rotarod”). The length of time at which the mouse fell off the rotarod was recorded as a measure of motor coordination. […] The treatment with Compound B had no effect on the rotarod performance of normal non-HD mice. The total distance traveled by the mice was also recorded as a measure of overall locomotion.

[5] = tested on: transgenic HD mice (N171–82Q); experiment: Huntington's disease transgenic mouse model, survival; format: in vivo
Description: The effects of Compound B and vehicle on the survival of transgenic HD mice (N171–82Q) were evaluated. Thirteen mice (six male and seven female) were assigned to the Compound B treatment group, and fourteen mice (six male and eight female) were assigned to the vehicle treatment group. Treatment was continued until all the mice died.

[6] = 8 week group, positive value indicates fewer fibers in the glaucoma eye

Row | Compound | FIBER NUMBER ([1]; 8 week group) | PERCENT DIFFERENCE (fiber number between glaucoma and normal eye) [1, 6] | mean percent fiber loss versus saline-treated control groups [1] | remaining axons relative to the saline-treated rats [3] | FIBER NUMBER ([3]; 2 weeks survival) | PERCENT DIFFERENCE (fiber number between transected eye and normal eye) ([3]; 2 weeks survival) | FIBER NUMBER ([3]; 4 weeks survival) | PERCENT DIFFERENCE (fiber number between transected eye and normal eye) ([3]; 4 weeks survival) | also measured
1 | O=C(O)CCC(CP(=O)(O)Cc1c(F)c(F)c(F)c(F)c1F)C(=O)O (centres unmarked) [Compound A] | 79156 ± 2436 | −1.82 ± 2.92% | statistically less | 3 times | 26,426 ± 23,025 | 65.3 ± 30.9% | 13,599 ± 7,868 | 82.4 ± 8.9% | hyperalgesic response (withdrawal latency difference score) [2]: completely reversed; DIFFERENCE (disease onset, Compound A treated versus vehicle treated mice) (transgenic G1H mice; 50 mg/kg daily intraperitoneal injections): 32 and 25; DISEASE ONSET FOR COMPOUND A TREATED MICE (transgenic G1H mice; 50 mg/kg daily intraperitoneal injections from one month of age): 221 days and 166 days; motor and sensory nerve conduction velocities (STZ-diabetic rats; 10 mg/kg daily for 4, 8 and 12 weeks, FIGS. 9A and 9B): tended to improve (increase); treatment time after which improvement of motor nerve conduction velocity was significant (STZ-diabetic rats; 10 mg/kg daily, FIG. 9A): 12 weeks; treatment time after which improvement of sensory nerve conduction velocity was significant (STZ-diabetic rats; 10 mg/kg daily, FIG. 9B): 8 weeks; nerve conduction velocity deficits versus diabetic vehicle controls (BB/W diabetic rats; 10 mg/kg daily, from 8 weeks to six months of treatment, FIG. 12): significantly less severe nerve conduction deficits; withdrawal latency versus diabetic vehicle-treated rats (BB/W diabetic rats; 10 mg/kg i.p. daily, starting after 4 weeks and through six months of treatment, FIG. 11): longer withdrawal latencies
2 | CC(=O)N[C@@H](CC(=O)O)C(=O)N[C@@H](CCC(=O)O)C(=O)O [NAAG, N-acetyl-aspartyl-glutamate] (Ac-Asp-Glu-OH) |  |  |  |  |  |  |  |  | Km (NAALADase): 0.54 µM
3 | O=C(O)CCC(CCCS)C(=O)O (centres unmarked) [Compound B, 2-(3-sulfanylpropyl)pentanedioic acid] | 80785 ± 2121 | −0.82 ± 2.97% | statistically less | twice | 19,550 ± 11,383 | 75.3 ± 14.8% | 5,162 ± 5,017 | 93.4 ± 6.2% | rotarod performance ([4]; normal non-HD mice, 30 mg/kg): no effect; rotarod performance (time on the rotarod) versus vehicle ([4]; transgenic HD mice, 30 mg/kg from 10 weeks of age): stayed longer on the rotarod; FIBER NUMBER ([1]; 12 week group): 90504 ± 1718; PERCENT DIFFERENCE (fiber number between glaucoma and normal eye) ([1]; 12 week group): −3.21 ± 2.86%; survival time versus vehicle treated counterparts ([5]; female mice, p-value=0.03, FIG. 46): significantly prolonged survival time; difference in median survival time versus vehicle treatment group ([5]; p-value=0.07): not statistically significant; median survival time ([5]; transgenic HD mice, male and female, FIG. 44): 184 days
